The text below walks through data of PMC7145288, “New Peptide-Based Pharmacophore Activates 20S Proteasome” (Molecules, 2020).

Assay [1] has as its system 20S core proteasome α face pockets. The assay can be described thus: Competition with Rpt C-terminal tail peptides for α face pockets (ChT-L activity). The format is biochemical, human. The note with it: Rpt peptide 1 μM added before TAT peptide; for Competition with Rpt tail peptides (in words, from radar plot scores): Rpt2 α3/α4, Rpt3 α1/α2, Rpt5 α5/α6, Rpt6 α2/α3 pocket, three to six experiments; for Enhanced (synergistic) activation with Rpt tail peptides (in words): Rpt5 or Rpt6 tails. From the text:
As mentioned above, the binding pockets on the α face accept “anchors” from natural protein ligands of the 20S core. […] The 10-residue Rpt-derived C-terminal “tail” peptides (“Rpt peptides”) can be used as competitors with the Rpt subunits or with small allosteric ligands. Importantly, the Rpt peptides interject between the subunits with their C-termini, whereas TAT peptides, according to the modeling, use their N-termini for this purpose. To test the specificity of interactions between TAT compounds and the α face, we performed competition experiments. The 20S core was challenged with selected TAT compounds after treatment with Rpt peptides. We selected peptides of Rpt2 ([…]), Rpt3 ([…]), Rpt5 ([…]) and Rpt6 […]) subunits, docking in α3/α4, α1/α2, α5/α6 and α2/α3 pockets, respectively. Tails of Rpt2, 3, and 5 display the canonical HbYX motif, whereas the LeuTrpLys C-terminus of Rpt6 may be considered “pseudo-HbYX”, with a bulky Trp replacing Tyr. Results of the competition experiments are presented as radar plots in Figure 7. […] This pocket also emerged as the major binding site for (1) and (8). However, these compounds likely weakly competed with the Rpt2 tail for binding to the α3/α4 pocket as well. The α3/α4 pocket seemed to be favored by (6). […] These complex patterns point at the importance of allosteric effects between the α face ligands, the gate and the catalytic chamber.
Figure 7 TAT1 derivatives competed with selected C-terminal tails of Rpt (Regulatory Particle ATPases) subunits for binding to specific α face pockets. The scores presented in radar plots were calculated as ((relative activation by the [x] and Rpt tail)-(theoretical sum of activation by [x] and Rpt tail))/(theoretical sum of activation by [x] and Rpt tail), where [x] represent any TAT peptide. […] The positive scores for combinations of selected compounds with Rpt5 or Rpt6 tails indicated a presumed synergy in activation of the core. Average scores derived from three to six experiments are presented. The competition effects were statistically significant (at least p < 0.05) for Rpt3 peptide and (1) and (8), as well as for Rpt2 peptide and (6).
Human housekeeping core (20S) proteasome purified from erythrocytes was purchased from Boston Biochem, Inc. (Cambridge, MA) or from Enzo Life Sciences, Inc. (Farmingdale, NY). Multiple batches of the proteasomes were used and performed reproducibly. The stock proteasome was diluted to 0.2 mg/mL working solution in “dilution buffer” (50 mM Tris/HCl, pH 8, 20% glycerol). The following model peptide substrates, all releasing fluorescent 7-amino-4-methylcoumarin (AMC) reporter group after cleavage, were used: succinyl-LeuLeuValTyr-AMC (for the ChT-L peptidase; SucLLVY-AMC; Bachem Bioscience Inc., Philadelphia, PA), butoxycarbonyl-LeuArgArg-AMC (T-L; Bachem Bioscience Inc., Philadelphia, PA) and carbobenzoxy- LeuLeuGlu-AMC (PGPH; Enzo Life Sciences Inc., Farmingdale, NY). The substrates were used at concentration of 50 μM (ChT-L) or 100 μM (T-L, PGPH). Free AMC (Sigma-Aldrich, St. Louis, MO) was used as the standard. The C-terminal peptides derived from Rpt2, Rpt3, Rpt5 and Rpt6 were synthesized (standard solid-phase peptide chemistry) and purified to at least 98% purity by GenScript (Piscataway, NJ). The TAT peptides, Rpt peptides (except Rpt6) and the peptide substrates were dissolved in anhydrous dimethylsulfoxide (DMSO; Sigma-Aldrich, St. Louis, MO) and such stock solutions were stored at −20 °C. The total concentration of DMSO in final reaction mixtures never exceeded 3% (vol/vol). The Trp (tryptophan) -containing Rpt6 peptide was dissolved in ultrapure water and stored at −20 °C, protected from light. […]

Assay [2] concerns proteasome ChT-L activity in SK-N-SH (ATCC HTB-11) cell lysates. In words: ChT-L proteasome activity in lysates of treated SK-N-SH cells. It is filed as cell-based, human. The note with it: SK-N-SH cells; for Proteasome ChT-L activity in lysates of treated cells versus control lysates (in words): 1 µM peptide, 24 h, 1 μg lysate, 50 μM Suc-LLVY-AMC, n = 3–4. The protocol:
[…] The content of live cells was determined by the Trypan Blue-exclusion assay. The cells were harvested, washed twice in PBS, resuspended in dilution buffer (see above) and stored in −80 °C. To prepare lysates the thawed preparations were vortexed with glass beads and centrifuged for 5 min 5000× g (4 °C). The supernatant was centrifuged for 20 min 14,000× g (4 °C). The resulting supernatant—“crude lysate” was diluted to 1 mg/mL of total protein with dilution buffer. 1 μg of lysate per assay (reaction buffer: 50 mM Tris/HCl pH 8, 0.1 mM MgCl2, 0.2 mM ATP, 0.1 mM dithiothreitol, 50 μM Suc-LLVY-AMC) was used for determination of ChT-L activity in a 96-well format, as above.

The subject of assay [3] is animal models of Alzheimer's disease. The note with it: ref 15 (Chocron et al.); cited from earlier work. From the text: In the light of significant proteasome-enhancing effects of TAT peptides observed both in cellulo (Figure 5 and [15]) and in vivo [15], there is a crucial question of how they influence proteolytic activity in the most widespread form of the proteasome, the 26S holoenzyme. The most-explored TAT compounds are proposed to dock in the α1/α2 pocket, which, alongside the α5/α6 pocket, is permanently occupied in all conformational forms of the 26S assembly. Therefore, activation of the core already decorated with two 19S modules seems excluded. Still, in our in vitro experiments, a signif ...

For the molecule `NCCCC[C@H](NC(=O)[C@H](CCCCN)NC(=O)[C@H](CCCCN)NC(=O)c1cc(NC(=O)[C@H](CCCCN)NC(=O)[C@H](CCCCN)NC(=O)[C@@H](N)CCCCN)cc(NC(=O)[C@H](CCCCN)NC(=O)[C@H](CCCCN)NC(=O)[C@@H](N)CCCCN)c1)C(=O)O` [(8)], in assay [1], the “Competition with Rpt tail peptides (in words, from radar plot scores)” value is on record as “added a weakly negative score for the Rpt2 tail to the presumed major competitor Rpt3” and the “Enhanced (synergistic) activation with Rpt tail peptides (in words)” value is reported as “enhanced activation in the presence of one of Rpt tails, namely Rpt5 or Rpt6”. Also, the “Proteasome ChT-L activity in lysates of treated cells versus control lysates (in words)” value in assay [2] is “significantly higher than activity in control lysates”. Besides, in assay [3], the “Proteins with increased turnover on treatment” value was “APP and β secretase”.
On to `N=C(N)NCCC[C@H](NC(=O)CN)C(=O)N[C@@H](CCCCN)C(=O)N[C@@H](CCCCN)C(=O)N[C@@H](CCCNC(=N)N)C(=O)N[C@@H](CCCNC(=N)N)C(=O)N[C@@H](CCC(N)=O)C(=O)N1Cc2ccccc2C[C@H]1C(=O)N1[C@@H](C(=O)N[C@@H](CCCNC(=N)N)C(=O)N2CCC[C@H]2C(=O)N[C@@H](CO)C(=O)O)C[C@H]2CCCC[C@H]21` [(5)], for which, in assay [1], the “Competition with Rpt tail peptides (in words, from radar plot scores)” value is “competed fairly specifically with Rpt3 tail” and the “Enhanced (synergistic) activation with Rpt tail peptides (in words)” value was “enhanced activation in the presence of one of Rpt tails, namely Rpt5 or Rpt6”. In assay [2], the “Proteasome ChT-L activity in lysates of treated cells versus control lysates (in words)” value is recorded as “significantly higher than activity in control lysates”. The “Dose dependent proteasome activation, 4 h versus 24 h exposure (in words)” value in assay [2] (0.5 or 1.0 µM, 4 or 24 h) was “substantially stronger after 4 h exposure than after 24 h”. Moreover, the “Proteins with increased turnover on treatment” value in assay [3] is “APP and β secretase”.
